From PubChem BioAssay (NCI)
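Interpolation was linear, between the two tested concentrations surrounding the appropriate level; five concentrations were tested over 48 hours in 96-well plates. GI50 = concentration required for 50% inhibition of growth. TGI denotes the concentration required for complete inhibition of growth.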

Assays:
Assay in all cases: inhibition of tumour cell growth, NCI panel, 48 h
[1] = tested on: 786-0 renal
[2] = tested on: A498 renal
[3] = tested on: CAKI-1 renal
[4] = tested on: COLO 205 colon
[5] = tested on: NCI-H23 lung
[6] = tested on: OVCAR-8 ovarian
[7] = tested on: SF-268 CNS
[8] = tested on: SK-OV-3 ovarian
[9] = tested on: SW-620 colon
[10] = tested on: UACC-257 melanoma

Compound | TGI [1] [µM] | TGI [2] [µM] | TGI [3] [µM] | TGI [4] [µM] | TGI [5] [µM] | TGI [6] [µM] | TGI [7] [µM] | TGI [8] [µM] | TGI [9] [µM] | TGI [10] [µM] | GI50 [1] [µM] | GI50 [3] [µM] | GI50 [4] [µM] | GI50 [5] [µM] | GI50 [6] [µM] | GI50 [7] [µM] | GI50 [8] [µM] | GI50 [9] [µM] | GI50 [10] [µM] | GI50 [2] [µM]
O=C(Cc1nc2ccccc2s1)Nc1ccc(Cl)cc1 | > 100 | > 100 | > 100 | > 100 | > 100 | > 100 | > 100 | > 100 | > 100 | > 100 | – | – | – | – | – | – | – | – | – | –
CN(C)CCCNC(=O)c1ccc2oc3cc4ccccc4c(=O)n3c2c1 | > 50 | – | 36.5 | > 50 | > 50 | > 50 | > 50 | > 50 | > 50 | > 50 | > 50 | 8.31 | 29.4 | 17.9 | 40.5 | 15.4 | > 50 | 24.3 | 20.6 | –
C#Cc1c(C)c(/C=C/C(C)=C/C=C/C(C)=C/C(=O)OC)n(C)c1C | > 100 | – | > 100 | > 100 | > 100 | > 100 | > 100 | > 100 | > 100 | > 100 | – | – | – | – | – | – | – | – | – | –
COc1ccc2c(c1O)C(=O)C(CCC(=O)O)CC2 (stereo not given) | > 100 | > 100 | > 100 | > 100 | > 100 | > 100 | – | > 100 | > 100 | > 100 | – | – | – | – | – | – | – | – | – | –
NC(=O)/C(=C\c1ccncc1)c1cccc2ccccc12 | > 100 | – | > 100 | > 100 | > 100 | > 100 | > 100 | > 100 | > 100 | 8.49 | – | – | – | – | – | – | – | – | – | –
CCN(CC)c1ccc(C2CC(c3cc(OC)c(OC)c(OC)c3)=NN2)cc1 (stereo not given) | – | 2.44 | – | – | > 100 | > 27.5 | > 100 | > 100 | > 100 | > 100 | 0.303 | 0.346 | – | 2.69 | 0.43 | 0.797 | 0.537 | 0.47 | 20.2 | 0.443
COc1c2ccoc2cc2oc(=O)ccc12 | > 100 | > 100 | > 100 | > 100 | > 100 | > 100 | > 100 | – | > 100 | > 100 | – | – | – | – | – | – | – | – | – | –
NCCCCCCCCn1c2c(c3ccccc3c1=O)C(=O)c1ccccc1-2 | 56.4 | 15.8 | 9.03 | – | 21.6 | > 100 | > 100 | 39.4 | 3.34 | 20.6 | 21 | 3.25 | – | 4.57 | 3.98 | 6.44 | 16.6 | 1.8 | 4.97 | 3.48
COc1cc(-c2nc(NC(C)=O)sc2-c2ccnc(NCCNS(=O)(=O)c3ccccc3)n2)ccc1Cl | > 100 | 8.97 | – | 6.01 | > 100 | > 100 | > 100 | > 100 | > 100 | > 100 | 4.31 | – | 2.21 | 5 | 5.21 | 4.25 | 4.77 | 4.37 | 5.37 | 2.96
COc1ccc(CCN2CCCN3C2=Nc2ccccc2S3(=O)=O)cc1 | > 100 | 3.2 | > 100 | 1.48 | > 100 | > 100 | > 100 | > 100 | > 100 | – | 0.651 | 0.73 | 0.329 | 0.474 | 0.802 | 2.06 | 0.552 | 0.381 | – | 0.195
O=C(O)C1=C(C(=O)Nc2ccccc2)C2C=CC1C2 (stereo not given) | > 100 | > 100 | – | > 100 | > 100 | > 100 | > 100 | > 100 | > 100 | > 100 | – | – | – | – | – | – | – | – | – | –
C=CCCOC(=O)CO[N+](=O)[O-] | > 100 | – | > 100 | > 100 | > 100 | > 100 | > 100 | > 100 | > 100 | > 100 | – | – | – | – | – | – | – | – | – | –
CCSC(SCC)c1cc2c(cc1Br)OCO2 | > 100 | 86.7 | – | 59.3 | 88.9 | > 100 | > 100 | 88.6 | > 100 | – | – | – | – | – | – | – | – | – | – | –
